Assay results reported in the supplement of paper PMC10307832.

How the values were obtained:
Assay in all cases: relative viability (nuclei count vs DMSO), 5 days (fraction); higher = more cells survive
[1] = compound: c1ccc2c(CCNc3ccc(Nc4ccncc4)cc3)c[nH]c2c1 [Serdemetan] + COc1cc2c(Oc3ccc(NC(=O)C4(C(=O)Nc5ccc(F)cc5)CC4)cc3F)ccnc2cc1OCCCN1CCOCC1 [Foretinib] (partner 0.25 µM)
Method in brief: (§1)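 Lung cancer cell lines were pin-tool dosed in 1536-well plates on the day after seeding, with either a lone drug or a fixed anchor-drug dose plus five library-drug doses (not always all listed) in √10 steps. Nuclei were counted on 4× images after 5 days. Relative viability is the ratio of treated-well to vehicle-well nuclei counts, with each value a median of duplicate plates.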

[2] = compound: c1ccc2c(CCNc3ccc(Nc4ccncc4)cc3)c[nH]c2c1 [Serdemetan] + N=C(N)NC(=N)NCCc1ccccc1 [Phenformin] (partner 250 µM)
Method in brief: as §1

[3] = compound: C1CC(C2=C(C1)C3=C(N2)C=CC(=C3)Cl)C(=O)N [Selisistat] + Cc1nc(Nc2ncc(C(=O)Nc3c(C)cccc3Cl)s2)cc(N2CCN(CCO)CC2)n1 [Dasatinib] (partner 0.075 µM)
Method in brief: as §1

[4] = compound: C1CC(C2=C(C1)C3=C(N2)C=CC(=C3)Cl)C(=O)N [Selisistat] + Cc1nc(NC(=O)N2CCC[C@H]2C(N)=O)sc1-c1ccnc(C(C)(C)C(F)(F)F)c1 [Alpelisib] (partner 2 µM)
Method in brief: as §1

| Cell Line | relative viability ([1]; first compound 0.04 µM) | relative viability ([1]; first compound 0.1265 µM) | relative viability ([1]; first compound 0.4 µM) | relative viability ([1]; first compound 1.265 µM) | relative viability ([1]; first compound 4 µM) | relative viability ([2]; first compound 0.04 µM) | relative viability ([2]; first compound 0.1265 µM) | relative viability ([2]; first compound 0.4 µM) | relative viability ([2]; first compound 1.265 µM) | relative viability ([2]; first compound 4 µM) | relative viability ([3]; first compound 0.4 µM) | relative viability ([3]; first compound 1.265 µM) | relative viability ([3]; first compound 4 µM) | relative viability ([3]; first compound 12.65 µM) | relative viability ([3]; first compound 40 µM) | relative viability ([4]; first compound 0.4 µM) | relative viability ([4]; first compound 1.265 µM) | relative viability ([4]; first compound 4 µM) | relative viability ([4]; first compound 12.65 µM) | relative viability ([4]; first compound 40 µM) |
| --- | --- | --- | --- | --- | --- | --- | --- | --- | --- | --- | --- | --- | --- | --- | --- | --- | --- | --- | --- | --- |
| NCI-H1734 | 0.692 | 0.335 | 0.223 | 0.126 | 0.204 | 0.303 | 0.318 | 0.338 | 0.156 | 0.181 | 0.48 | 0.469 | 0.622 | 0.502 | 0.464 | 0.744 | 0.621 | 0.697 | 0.739 | 0.706 |
| NCI-H1755 | 0.901 | 0.934 | 0.846 | 0.674 | 0.599 | 0.625 | 0.623 | 0.564 | 0.469 | 0.52 | 0.474 | 0.476 | 0.418 | 0.419 | 0.414 | 1.03 | 0.958 | 0.94 | 0.956 | 0.935 |
| NCI-H1793 | 0.663 | 0.716 | 0.446 | 0.363 | 0.245 | 0.378 | 0.293 | 0.247 | 0.236 | 0.26 | 0.359 | 0.394 | – | 0.426 | 0.344 | 0.859 | 0.625 | – | 0.958 | 0.834 |
| NCI-H1915 | 1.14 | 1.09 | 1.07 | 1.03 | 0.837 | 0.38 | 0.358 | 0.359 | 0.318 | 0.334 | 0.322 | 0.312 | 0.261 | 0.319 | 0.313 | 1.08 | 1.03 | 1.09 | 1.05 | 1.04 |
| NCI-H1944 | 0.832 | 0.836 | 0.828 | 0.406 | 0.392 | 0.197 | 0.213 | 0.202 | 0.128 | 0.154 | 0.24 | 0.205 | – | 0.22 | 0.2 | 0.92 | 0.779 | – | 0.729 | 0.823 |
| NCI-H1975 | 0.866 | 0.849 | 0.982 | – | 0.987 | 0.401 | 0.416 | 0.427 | – | 0.415 | 0.346 | 0.383 | 0.195 | 0.314 | 0.345 | 0.656 | 0.553 | 0.588 | 0.604 | 0.579 |
| NCI-H1993 | 0.888 | 0.813 | 0.692 | 0.76 | 0.672 | 0.516 | 0.539 | 0.596 | 0.454 | 0.532 | 0.629 | 0.655 | 0.501 | 0.672 | 0.589 | 0.575 | 0.67 | – | 0.775 | 0.721 |
| NCI-H2009 | 1.18 | 1.14 | 1.16 | 1.14 | 0.887 | 0.451 | 0.472 | 0.431 | 0.307 | 0.366 | 0.323 | 0.267 | 0.208 | 0.239 | 0.241 | 1.22 | 1.1 | 1.25 | 0.835 | 1.12 |
| NCI-H2023 | 0.804 | 0.795 | 0.689 | 0.653 | 0.267 | 0.395 | 0.413 | 0.351 | 0.254 | 0.205 | 0.495 | 0.497 | 0.524 | 0.539 | 0.512 | 0.594 | 0.52 | 0.608 | 0.59 | 0.592 |
| NCI-H2085 | 1 | 0.899 | 1 | 0.936 | 0.533 | 0.778 | 0.762 | 0.634 | 0.571 | 0.424 | 0.262 | 0.219 | 0.204 | 0.27 | 0.257 | 1.04 | 0.983 | 0.968 | 1.06 | 0.919 |
| NCI-H2087 | 1.01 | 0.92 | 0.858 | 0.447 | 0.355 | 0.446 | 0.47 | 0.455 | 0.267 | 0.253 | 1.08 | 0.837 | – | 0.82 | 0.777 | 1.33 | 0.933 | 1 | 0.971 | 1.04 |
| NCI-H2126 | 1.23 | 1.13 | 1.03 | 1.01 | 1.03 | 0.555 | 0.557 | 0.535 | 0.512 | 0.527 | 0.705 | 0.597 | 0.525 | 0.601 | 0.616 | 0.812 | 0.77 | 0.758 | 0.863 | 0.81 |
| NCI-H2170 | 1.02 | 0.97 | 1.05 | 0.637 | 1.14 | 0.374 | 0.354 | 0.383 | 0.35 | 0.336 | 0.468 | 0.47 | 0.521 | 0.563 | 0.63 | 0.885 | 0.805 | 0.815 | 0.771 | 0.881 |
| NCI-H2228 | 0.755 | 0.518 | 0.784 | 0.303 | 0.258 | 0.38 | 0.269 | 0.362 | 0.238 | 0.21 | 0.68 | 0.577 | 0.449 | 0.536 | 0.557 | 0.721 | 0.687 | 0.587 | 0.691 | 0.647 |
| NCI-H2347 | 1.08 | 0.831 | 0.89 | 0.954 | 0.604 | 0.52 | 0.382 | 0.366 | 0.3 | 0.289 | 0.343 | 0.299 | 0.171 | 0.344 | 0.31 | 1.17 | 1.15 | 0.824 | 1 | 1.12 |
| NCI-H2405 | 1.03 | 1.01 | 1.01 | 0.902 | 0.764 | 0.317 | 0.406 | 0.366 | 0.344 | 0.381 | 0.221 | 0.189 | 0.178 | 0.204 | 0.276 | 0.769 | – | – | 0.834 | 0.845 |
